In the experiment the target is T1, Mouse autotaxin enzyme (Mus musculus, UniProt Q9R1E6).
T1 construct: purchased R&D System
Put plainly: Evaluation of autotaxin inhibitor, Method A (Test Example 1): TG-mTMP fluorescence. The experiment is classed as biochemical. The conditions noted are these: Assay Method: Method A (Test Example 1); read-out: Inhibitory Activity (Enzyme Inhibitory Activity, IC50). As to the method: (Method A) Evaluation of Autotaxin Inhibitor
Solution A containing 25 mM Tris-HCl buffer (pH7.5), 100 mM NaCl, 5 mM MgCl2 and 0.1% BSA was prepared. Mouse autotaxin enzyme (purchased from R&D System) was diluted with Solution A, and 5 μL of which was added to a solution of test compound in DMSO. Furthermore, 5 μl of 0.5 μM TG-mTMP in Solution A was added and allowed to react at room temperature for 2 hours. 5 μl of 150 mM EDTA in Solution A was added to quench the reaction, and a fluorescent dye TokyoGreen, which was produced by the reaction, was detected. The fluorescence was detected using ViewLux (PerkinElmer, Inc.) with an excitation wavelength of 480 nm and a fluorescence wavelength of 540 nm.
The percent inhibition of the test compound was calculated by assuming the sample with no test compound as 0% inhibition and the sample with no enzyme as 100% inhibition, and the percent inhibitions at different concentrations of the test compound were plotted to obtain a concentration-dependent curve.

As for `CCOC(=O)Cn1c(C)cc(=O)n2cc(-c3ccccc3)nc12` [Compound 35], the IC50 (as a rule, the concentration needed to halve the response being measured) lay within 10 to 100 nM.

For the molecule `C#CCn1c(C)cc(=O)n2cc(-c3ccc(Cl)cc3)nc12` [Compound 16], the 50% inhibitory concentration (IC50) is 10 to 100 nM.

As for `CCCCCCCn1c(C)cc(=O)n2cc(-c3ccc(Cl)cc3)nc12` [Compound 9], the 50% inhibitory concentration (IC50) is 10 to 100 nM.

Regarding `COCCOCCOCCn1c(C)cc(=O)n2cc(-c3ccc(Cl)cc3)nc12` [Compound 27], the IC50 is above 1000 nM.

As to `CCOC(=O)Cn1c(C)cc(=O)n2cc(-c3cccc(Br)c3)nc12` [Compound 33], the IC50 is above 1000 nM.

As for `CCN(C)C(=O)Cn1c(C)cc(=O)n2cc(-c3ccc(Cl)cc3)nc12` [Compound 25], the IC50 was 100 to 1000 nM.

For the molecule `CCCn1c(C)cc(=O)n2cc(-c3ccc(Cl)cc3)nc12` [Compound 6], the IC50 lay in the range of 10 to 100 nM.

For `CCOC(=O)Cn1c(C)cc(=O)n2cc(-c3ccc(F)cc3)nc12` [Compound 30], the IC50 was 10 to 100 nM.

`CCCCCn1c(C)cc(=O)n2cc(-c3ccc(F)cc3)nc12` [Compound 17]: the IC50 was in the range of 10 to 100 nM.

For `CCOC(=O)Cn1c(C)cc(=O)n2cc(-c3ccc(Br)cc3)nc12` [Compound 31], the IC50 is 10 to 100 nM.

Values taken from patent US20160002247A1, “8-SUBSTITUTED IMIDAZOPYRIMIDINONE DERIVATIVE HAVING AUTOTAXIN INHIBITORY ACTIVITY” (THE UNIVERSITY OF TOKYO, priority 2013, published 2016).
